In article doi:10.1101/2021.02.22.432404v1 (biorxiv, 2021):

Molecular target: T1, E. coli thymidylate kinase (TMPK) (Escherichia coli, UniProt P0A720)
T1 sequence (P0A720 1-213): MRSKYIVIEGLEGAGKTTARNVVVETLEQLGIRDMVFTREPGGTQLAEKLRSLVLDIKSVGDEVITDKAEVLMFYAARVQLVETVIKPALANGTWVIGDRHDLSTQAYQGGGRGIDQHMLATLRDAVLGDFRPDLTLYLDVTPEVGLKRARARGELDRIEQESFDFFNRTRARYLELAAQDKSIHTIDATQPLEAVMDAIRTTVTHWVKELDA
Test: ATPlite luminescence assay, direction of ATP synthesis
Assay type: biochemical

| SMILES | IC50 |
| --- | --- |
| COc1cc(C=C2SC(=S)NC2=O)ccc1OC(C)C [compound 1] | 390 nM |
| COc1ccc(C=C2SC(=S)NC2=O)cc1O [compound 2] | 2500 nM |
| CCOc1ccc(C=C2SC(S)=NC2=O)cc1OC [compound 9] | 410 nM |
| COc1cc(C=C2SC(=S)NC2=O)ccc1OC(C)=O [compound 11] | 480 nM |
| COc1cc(C=C2SC(=S)NC2=O)ccc1O [compound 12] | 500 nM |
| C=CCOc1cccc(C=C2SC(=S)NC2=O)c1 [compound 13] | 1000 nM |
| COc1cc(C=C2SC(=S)NC2=O)cc(OC)c1O [compound 27] | 250 nM |
| CCOc1cc(C=C2SC(=S)NC2=O)ccc1OC(C)=O [compound 28] | 470 nM |
| CCOC(=O)COc1ccc(C=C2SC(=S)NC2=O)cc1OC [compound 31] | 680 nM |
